From patent publication US20260240879A1, “TOPICAL PALA THERAPY FOR CANCER” (priority 2023, published 2026)

Key:
UVB-induced skin tumors = experiment: Immunostaining of excised skin tumors (cell cycle markers, antimicrobial peptides, immune cells); format: in vivo, SKH1-Elite mice
[1] = molecular target: T1, aspartate transcarbamylase (Homo sapiens, UniProt P27708); experiment: Aspartate transcarbamylase activity in lysates of PALA-treated fibroblasts; format: cell-based; conditions: at doses that induce maximal immune stimulation, 16 h
T1 construct: endogenous in cells; host or cells: normal human dermal fibroblasts
T1 sequence (P27708 2-2225 limits assumed): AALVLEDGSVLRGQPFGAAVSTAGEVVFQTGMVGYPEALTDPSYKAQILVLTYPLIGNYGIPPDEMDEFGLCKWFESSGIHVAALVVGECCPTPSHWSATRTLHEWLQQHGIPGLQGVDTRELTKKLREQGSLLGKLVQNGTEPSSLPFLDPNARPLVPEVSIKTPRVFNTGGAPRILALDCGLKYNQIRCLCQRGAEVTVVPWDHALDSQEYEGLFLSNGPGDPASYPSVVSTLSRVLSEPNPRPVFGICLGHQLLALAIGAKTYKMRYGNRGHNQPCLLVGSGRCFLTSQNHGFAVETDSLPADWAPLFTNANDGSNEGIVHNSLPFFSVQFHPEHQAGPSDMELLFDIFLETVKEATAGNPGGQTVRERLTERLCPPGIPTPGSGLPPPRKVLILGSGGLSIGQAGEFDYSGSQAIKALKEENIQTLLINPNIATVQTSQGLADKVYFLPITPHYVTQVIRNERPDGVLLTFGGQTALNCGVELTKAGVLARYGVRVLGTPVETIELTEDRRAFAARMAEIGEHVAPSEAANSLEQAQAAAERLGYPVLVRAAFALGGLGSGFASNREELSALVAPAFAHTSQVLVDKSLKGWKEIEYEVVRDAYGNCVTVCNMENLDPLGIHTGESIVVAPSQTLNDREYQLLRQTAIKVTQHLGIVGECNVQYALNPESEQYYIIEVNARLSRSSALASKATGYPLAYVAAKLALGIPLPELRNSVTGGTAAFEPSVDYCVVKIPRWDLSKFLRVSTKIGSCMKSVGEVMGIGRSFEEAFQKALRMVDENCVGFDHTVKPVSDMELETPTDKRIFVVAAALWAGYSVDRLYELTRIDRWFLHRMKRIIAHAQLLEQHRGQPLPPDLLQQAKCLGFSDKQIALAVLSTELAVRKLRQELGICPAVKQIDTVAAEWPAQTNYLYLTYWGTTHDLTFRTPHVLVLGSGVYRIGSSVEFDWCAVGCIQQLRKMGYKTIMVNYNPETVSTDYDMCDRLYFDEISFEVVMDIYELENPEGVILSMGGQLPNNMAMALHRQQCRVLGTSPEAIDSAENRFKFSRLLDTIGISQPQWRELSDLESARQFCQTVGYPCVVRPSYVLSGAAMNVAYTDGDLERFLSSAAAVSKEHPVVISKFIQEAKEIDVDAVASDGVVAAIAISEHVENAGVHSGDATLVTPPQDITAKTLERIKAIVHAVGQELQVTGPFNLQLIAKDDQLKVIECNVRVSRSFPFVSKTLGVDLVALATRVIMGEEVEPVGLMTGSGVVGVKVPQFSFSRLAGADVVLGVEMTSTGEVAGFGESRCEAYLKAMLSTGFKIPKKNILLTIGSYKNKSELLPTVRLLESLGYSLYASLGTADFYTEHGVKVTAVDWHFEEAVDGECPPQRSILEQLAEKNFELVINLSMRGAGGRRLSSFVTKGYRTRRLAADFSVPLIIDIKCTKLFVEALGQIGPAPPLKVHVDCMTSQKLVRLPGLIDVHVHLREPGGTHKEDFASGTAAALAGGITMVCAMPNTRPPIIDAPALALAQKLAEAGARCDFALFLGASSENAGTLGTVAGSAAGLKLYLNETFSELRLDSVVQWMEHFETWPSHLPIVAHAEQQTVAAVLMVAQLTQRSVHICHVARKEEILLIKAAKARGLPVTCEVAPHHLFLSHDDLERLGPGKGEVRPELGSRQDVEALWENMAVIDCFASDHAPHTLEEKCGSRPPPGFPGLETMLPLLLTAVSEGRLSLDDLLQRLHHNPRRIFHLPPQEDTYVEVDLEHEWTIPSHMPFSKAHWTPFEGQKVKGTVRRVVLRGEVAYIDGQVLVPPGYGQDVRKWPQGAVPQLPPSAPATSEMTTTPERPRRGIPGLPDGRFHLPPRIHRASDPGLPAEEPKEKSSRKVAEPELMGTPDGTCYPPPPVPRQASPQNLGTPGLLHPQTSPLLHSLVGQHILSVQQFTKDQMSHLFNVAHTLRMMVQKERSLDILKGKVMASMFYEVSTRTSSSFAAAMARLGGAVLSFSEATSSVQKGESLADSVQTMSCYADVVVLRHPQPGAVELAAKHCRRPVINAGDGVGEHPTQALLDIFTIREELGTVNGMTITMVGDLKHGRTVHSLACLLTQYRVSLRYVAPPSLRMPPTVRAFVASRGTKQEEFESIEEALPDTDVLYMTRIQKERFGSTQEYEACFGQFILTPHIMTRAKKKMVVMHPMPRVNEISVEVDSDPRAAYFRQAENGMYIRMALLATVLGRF
Procedure: A. Bactericidal activity of normal human dermal fibroblasts stimulated by PALA treatment. Cells stimulated for 16 h with the indicated concentration of PALA. Conditioned supernatants added to log phase cultures of methicillin-resistant Staphylococcus aureus (MRSA) for 2 h and viable bacterial determined by selective plating. Mean±SD graphed. B. PALA-stimulated production of antimicrobial peptides in normal human dermal fibroblasts. Cells were stimulated as in A. and supernatants assayed by ELISA for human β-defensin 2 (HBD2) and human β-defensin 3 (HBD3). Mean±SD graphed. C. […] Cell lysates from the cells shown in A. were assayed for their ability to catalyze the formation of carbamyl aspartate (CA) in vitro. Percent change in CA levels graphed; mean±SD. […] D. Average number of tumors per mouse at the end of the treatment period (mean±SEM graphed). D. Mice treated for 10 weeks with vehicle (Aquaphor), 1%, 2%, or 5% PALA in Aquaphor. E. Mice treated for 4 weeks with vehicle (AP0536/29/02), 2% (w/w) PALA (AP0536/29/02), or 4% (w/w) PALA (AP0536/29/02).

[2] = molecular target: aspartate transcarbamylase (Escherichia coli, UniProt P0A786); conditions: transition-state analog inhibitor; cited from earlier work
aspartate transcarbamylase (Escherichia coli, UniProt P0A786), sequence (P0A786 2-311): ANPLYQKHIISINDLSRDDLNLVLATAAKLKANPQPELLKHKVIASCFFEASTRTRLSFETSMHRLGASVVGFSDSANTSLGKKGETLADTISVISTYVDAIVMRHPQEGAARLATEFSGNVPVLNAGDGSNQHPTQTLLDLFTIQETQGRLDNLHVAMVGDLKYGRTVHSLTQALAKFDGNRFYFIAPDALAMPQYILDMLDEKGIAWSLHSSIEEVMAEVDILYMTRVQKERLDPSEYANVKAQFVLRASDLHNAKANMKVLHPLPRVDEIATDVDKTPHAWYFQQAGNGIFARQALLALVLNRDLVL

[3] = Toxicity markers in UVB-tumor-bearing mice under topical treatment (weight, SAA, colon length, fecal LCN2)
Procedure: Serum amyloid A levels were measured in plasma samples using the Mouse SAA ELISA kit (E-90SAA, Immunology Consultants Laboratory, Inc.) according to manufacturer's instructions. Lipocalin-2 (LCN2) was quantified from pre-weighed stool samples homogenized in 0.5 mL PBS using the Mouse Lipocalin-2/NGAL DuoSet ELISA (DY1857) and DuoSet Ancillary Reagent Kit 2 (DY008, R&D Systems).

[4] = test system: UVB-induced NMSC (AK lesions and SCC tumors); experiment: UVB-induced NMSC mouse model: tumor number, area, growth phenotype and grade; conditions: for total tumors at endpoint: vehicle 12.5±2.4
[5] = 2% (w/w) PALA (AP0536/29/02), daily, 4 weeks
[6] = individual tumors, PALA n = 48, vehicle 7.3%

For `O=C(O)CC(NC(=O)CP(=O)(O)O)C(=O)O` [PALA, N-phosphonacetyl-L-aspartate], the “CD8+ cytotoxic T cells in tumors” value (UVB-induced skin tumors; PALA compared to vehicle-treated controls) was “elevated numbers”, the “F4/80+ macrophages in tumors” value (UVB-induced skin tumors; PALA relative to vehicle-treated controls) was “increased numbers” and the “LL-37+ cells in tumor samples” value (UVB-induced skin tumors; PALA vs vehicle) was “significantly increased”. For the same molecule, the “numbers of MPO+ cells (neutrophils) in tumors” value (UVB-induced skin tumors; PALA vs vehicle) was “the same”, the “overall number of CD3+ T cells within tumor tissue” value (UVB-induced skin tumors; PALA vs vehicle) was “the same” and the “total area of DefB14 staining within tumors” value (UVB-induced skin tumors; PALA vs vehicle) was “not different”. For the same molecule, the “phospho-histone H3+ cells” value (UVB-induced skin tumors; excised tumors, 2% PALA, vehicle 3.1%, p=0.0067) was 4.9%, the “Ki67+ cells per tumor” value (UVB-induced skin tumors; excised tumors, 2% PALA, vehicle 10.4%, p=0.005) was 24.6% and the “cyclin D1+ cells per tumor” value (UVB-induced skin tumors; excised tumors, 2% PALA, vehicle 48.9%, p=0.0329) was 39.4%. The “cyclin B1+ or cyclin A2+ cell populations” value (UVB-induced skin tumors; excised tumors, PALA vs vehicle) was “No differences”, the “reduction of aspartate transcarbamylase enzyme activity (carbamyl aspartate formation)” value [1] was ~ 25% and the “potency as inhibitor of aspartate transcarbamylase” value [2] was “nanomolar potency”. For the same molecule, the “skin irritation or weight loss” value ([3]; 1, 2 or 5% (w/v) PALA in 50% acetone/10% glycerol, daily topical, 10 weeks) was “no apparent skin irritation or weight loss”, the “circulating levels of serum amyloid A (SAA) at endpoint” value ([3]; 1, 2 or 5% (w/v) PALA vs vehicle, daily topical, 10 weeks, trends of higher SAA at 1% and 5%) was “No significant differences” and the “gross colon pathology and colon lengths at harvest” value ([3]; 1, 2 or 5% (w/v) PALA, daily topical, 10 weeks) was “None of the mice had any apparent gross colon pathology or significant differences in colon lengths”. For the same molecule, the “change in weight from the start of treatment” value ([3]; 2% (w/w) PALA (AP0536/29/02) vs 5% 5-FU and 5% IMQ, daily, 4 weeks) was “maintain weight is better than 5-FU or IMQ treated mice”, the “weight, SAA levels, gross intestinal pathology, LCN2 levels vs vehicle” value ([3]; 2% PALA, daily topical, 10 weeks) was “no significant differences” and the “fecal lipocalin-2 (LCN2) at endpoint” value ([3]; 5% PALA, daily topical, 10 weeks, vehicle 18.1±6.0, p=0.032) was 186.8±121.1. For the same molecule, the “concentration up to which topical PALA is well tolerated” value ([3]; 10 weeks of daily treatment) was “up to 5 % (w/v)”, the “total tumors at endpoint” value ([4]; 1% PALA in 50% acetone/10% glycerol, daily topical, 10 weeks) was 11.7±3.8 and the “average tumor burden, % of original size at endpoint” value (shortened to “average tumor burden, %”) ([4]; 1% PALA, daily topical, 10 weeks, vehicle 286.4%±62.6) was 275.0%±84.7. The “shape of dose-response, average number of tumors per mouse at end of treatment” value ([4]; 1%, 2%, 5% PALA in Aquaphor 10 weeks, 4% (w/w) PALA 4 weeks) was “U-shaped dose-response curves”, the “growth profile of individual tumors” value [4, 5] was “lower percentage of continually growing tumors” and the “mean tumor surface area per tumor (average tumor size)” value [4, 5] was “significantly smaller average tumor size than either vehicle or 5% IMQ treated mice”. The endpoint tumor grade ([4]; 2% (w/w) PALA (AP0536/29/02), daily, 4 weeks, vs vehicle or 5% IMQ) was “fewer squamous cell carcinoma (SCC) and SCC in situ tumors”, the “total tumors at endpoint” value ([4]; 2% PALA in 50% acetone/10% glycerol, daily topical, 10 weeks) was 3.83±0.6 and the “tumor levels of interleukin-1β” value ([4]; 2% PALA or 5% IMQ, daily, 4 weeks) was “elevated”. For the same molecule, the “mean tumor cross-sectional area, endpoint value” ([4]; 2% PALA, daily topical, 10 weeks, vehicle 4.4, p=0.003) was 2.4 mm^2, the “mean surface tumor area, endpoint value” ([4]; 2% PALA, daily topical, 10 weeks, vehicle 197.1, p<0.0001) was 30.3 mm^2 and the “average tumor burden, %” value ([4]; 2% PALA, daily topical, 10 weeks, vehicle 286.4%±62.6, 252.3%±34.3) was 99.2%±20.5. The “tumor levels of interferon-al” value ([4]; 2% PALA, daily, 4 weeks, compared with 5% IMQ) was “elevated only in 2% PALA treated mice”, the “total tumors at endpoint” value ([4]; 5% PALA in 50% acetone/10% glycerol, daily topical, 10 weeks) was 6.20±1.8 and the “average tumor burden, %” value ([4]; 5% PALA, daily topical, 10 weeks, vehicle 286.4%±62.6) was 91.6%±13.4. For the same molecule, the “concentrations demonstrating anti-tumor activity” value ([4]; 10 weeks of daily topical treatment) was at least 2%, the “tumors shrinking after an initial period of growth or continually reducing in size” value ([4]; PALA treated tumors, 10 weeks) was 97.9% and the “proportion of AK/SCC in situ and benign lesions” value ([4]; PALA-treated mice, vehicle 31%, p<0.001) was 62%. For the same molecule, the “prevalence of well differentiated SCC and poorly differentiated SCC” value ([4]; PALA-treated mice, vehicle 69%, p<0.0001) was 38%, the “Total Tumor Number: Poorly Differentiated SCC” value ([4]; excised tumors, 2% PALA daily 10 weeks, vehicle 25) was 6 and the “Total Tumor Number: Benign/ Hyperplastic” value ([4]; excised tumors, vehicle 0) was 8. For the same molecule, the “Total Tumor Number: AK/SCC in situ” value ([4]; excised tumors, vehicle 28) was 23, the “Total Tumor Number: Well Differentiated SCC” value ([4]; excised tumors, vehicle 37) was 12 and the “Tumor Growth Outcome: Same, %” value [4, 6] was 0 (0%). For the same molecule, the “Tumor Growth Outcome: Smaller, %” value [4, 6] was 4.1%, the “Tumor Growth Phenotype: No Change, %” value [4, 6] was 0 (0%) and the “Tumor Growth Phenotype: Continual Shrinkage, %” value ([4]; individual tumors, PALA n = 48, vehicle 17.0%) was 29.1%. The “Tumor Growth Outcome: Resolved, %” value ([4]; individual tumors, PALA n = 48, vehicle 26.8%) was 83.3%, the “Tumor Growth Phenotype: Grow then Shrink, %” value ([4]; individual tumors, PALA n = 48, vehicle 29.2%) was 68.7% and the “Tumor Growth Phenotype: Continual Growth, %” value ([4]; individual tumors, PALA n = 48, vehicle 46.3%) was 2.0%. For the same molecule, the “Tumor Growth Outcome: Larger, %” value ([4]; individual tumors, PALA n = 48, vehicle 58.5%) was 12.5%, the “tumor burden and total tumor area” value ([4]; reformulated 2% (w/v) PALA (AP0536/29/02), daily, 6 weeks) was “effective in reducing tumor burden and total tumor area” and the “Tumor Prevalence: Benign/ Hyperplastic” value ([4]; vehicle 0%) was 13%. For the same molecule, the “Tumor Area: Benign/ Hyperplastic, mean (SEM)” value ([4]; vehicle 0 (0)) was 1.4 (0.3), the “Tumors / Mouse: Benign/ Hyperplastic, mean (SEM)” value ([4]; vehicle 0 (0)) was 0.5 (0.6) and the “Tumor Cross Sectional Area: AK/SCC in situ, mean (SEM)” value ([4]; vehicle 1.5 (0.7)) was 1.1 (1.0) mm^2. For the same molecule, the “Tumors / Mouse: Poorly Differentiated SCC, mean (SEM)” value ([4]; vehicle 2.0 (1.6)) was 0.5 (0.9), the “Tumors / Mouse: AK/SCC in situ, mean (SEM)” value ([4]; vehicle 2.3 (2.1)) was 1.9 (1.2) and the “Tumors / Mouse: Well Differentiated SCC, mean (SEM)” value ([4]; vehicle 3.0 (1.8)) was 1.0 (1.1). For the same molecule, the “Tumor Area: AK/SCC in situ, mean (SEM)” value ([4]; vehicle 3.4 (6.6)) was 2.3 (2.0), the “Tumor Cross Sectional Area: Well Differentiated SCC, mean (SEM)” value ([4]; vehicle 3.7 (2.0)) was 3.1 (2.2) mm^2 and the “Tumor Cross Sectional Area: Poorly Differentiated SCC, mean (SEM)” value ([4]; vehicle 9.2 (5.8)) was 9.8 (6.4) mm^2. For the same molecule, the “Tumor Area: Well Differentiated SCC, mean (SEM)” value ([4]; vehicle 10.7 (18.0)) was 7.5 (4.5), the “Tumor Prevalence: Poorly Differentiated SCC” value ([4]; vehicle 28%) was 13% and the “Tumor Prevalence: AK/SCC in situ” value ([4]; vehicle 31%) was 49%. The “Tumor Prevalence: Well Differentiated SCC” value ([4]; vehicle 41%) was 25%, the “Tumor Area: Poorly Differentiated SCC, mean (SEM)” value ([4]; vehicle 59.5 (77.3)) was 62.6 (70.0) and the “Tumor Cross Sectional Area: Benign/ Hyperplastic, mean (SEM)” value ([4]; vehicle n/a) was 1.7 (2.0) mm^2.
